The values that follow come from US7709495B2, “Methods and reagents for the treatment of inflammatory disorders” (CombinatoRx, Incorporated, priority 2003, dated 2010).

Where two headings read alike, the source gives them in different places.

Common to all, as to assay type: cell-based
One experiment relates to TNFα secretion. Put plainly: TNFα secretion assay (ELISA), phorbol 12-myristate 13-acetate/ionomycin stimulated white blood cells. The following applies: Homo sapiens, PBMC, read-out: % Inhibition TNFα PBMC PI. Here is the method:
(§1) The compound dilution matrix was assayed for the suppression of phorbol 12-myristate 13 acetate/ionomycin stimulated IL-1 and TNFα secretion as well as the suppression of lipopolysaccharide-stimulated TNFα secretion from human white blood cells using the ELISA method, as described below.
(§2) A stock solution containing prednisolone (0.36 mg/ml) was prepared in DMSO. A stock solution containing ibudilast (1.84 mg/ml) was prepared in DMSO. Master plates were prepared for dilutions of the stock solutions above.
(§3) The final single agent plates were generated by transferring 1 μL of stock solution from the specific master plate to separate dilution plates containing 99 μL of media (RPMI; Gibco BRL, #11875-085), 10% fetal bovine serum (Gibco BRL, #25140-097), 2% penicillin/streptomycin (Gibco BRL, #15140-122)) using the Packard Mini-Trak liquid handler. The dilution plates were then mixed and a 10 μL aliquot transferred from each dilution plate to the final assay plate (polystyrene 384-well plate (NalgeNunc)), which had been pre-filled with 30 μL/well RPMI media containing 33 ng/mL phorbol 12-myristate 13-acetate (Sigma, P-1585) and 2.475 ng/mL ionomycin (Sigma, I-0634) or alternatively for the LPS stimulated assay RPMI media containing 2 μg/ml lipopolysaccharide (Sigma, L-4130).
The effects of test compound combinations on TNFα secretion were assayed in white blood cells from human buffy coat stimulated with phorbol 12-myistate 13-acetate, or lipopolysaccharide as follows. Human white blood cells from buffy coat were diluted 1:50 in media (RPMI; Gibco BRL, #11875-085), 10% fetal bovine serum (Gibco BRL, #25140-097), 2% penicillin/streptomycin (Gibco BRL, #15140-122)) and 50 μL of the diluted white blood cells were placed in each well of the final assay plate created in the above section. After 16-18 hours of incubation at 37° C. with 5% CO2 in a humidified incubator, the plate was centrifuged and the supernatant transferred to a white opaque polystyrene 384 well plate (NalgeNunc, Maxisorb) coated with an anti-TNFα antibody (PharMingen, #551220). After a two-hour incubation, the plate was washed (Tecan Powerwasher 384) with PBS containing 0.1% Tween 20 and incubated for one additional hour with biotin labeled anti-TNFα antibody (PharMingen, #554511) and HRP coupled to streptavidin (PharMingen, #13047E). The plate was then washed again with 0.1% Tween 20/PBS. An HRP-luminescent substrate was added to each well, and the light intensity of each well was measured using a plate luminometer.
(§4) The percent inhibition (% I) for each well was calculated using the following formula: % I=[(avg. untreated wells−treated well)/(avg. untreated wells)]×100
(§5) The average untreated well value (avg. untreated wells) is the arithmetic mean of 30 wells from the same assay plate treated with vehicle alone.
TNFα secretion was measured by ELISA as described above after stimulation with phorbol 12-myristate 13-acetate and ionomycin. The effects of varying concentrations of ibudilast, prednisolone and a combination of ibudilast and prednisolone were compared to control wells.

The next experiment concerns IL-1 secretion. Put plainly: IL-1 secretion assay (ELISA), LPS stimulated white blood cells. The following applies: Homo sapiens, PBMC. The protocol:
as §1, §2, §3
The effects of test compound combinations on IL-1 secretion were assayed in white blood cells from human buffy coat stimulated with LPS, as follows. Human white blood cells from buffy coat were diluted 1:50 in media (RPMI; Gibco BRL, #11875-085), 10% fetal bovine serum (Gibco BRL, #25140-097), 2% penicillin/streptomycin (Gibco BRL, #15140-122)) and 50 μL of the diluted white blood cells was placed in each well of the final assay plate created in the above section. After 16-18 hours of incubation at 37° C. in a humidified incubator, the plate was centrifuged and the supernatant was transferred to a white opaque 384-well plate (NalgeNunc, MAXISORB) coated with an anti-IL-1 antibody (R&D Systems, MAB601). After a two-hour incubation, the plate was washed (Tecan Powerwasher 384) with PBS containing 0.1% Tween 20 and incubated for an additional one hour with a biotin labeled anti-IL-1 antibody (R&D Systems, BAF201) and horse radish peroxidase coupled to streptavidin (PharMingen, #554066). The plate was then washed again with 0.1% Tween 20/PBS, and an HRP-luminescent substrate was added to each well. Light intensity was then measured using a plate luminometer.
as §4, §5
IL-1 secretion was measured by ELISA as described above after stimulation with lipopolysaccharide. The effects of varying concentrations of ibudilast, prednisolone and a combination of ibudilast and prednisolone were compared to control wells.
(ELISA stands for enzyme-linked immunosorbent assay.)

For experiment [1], the system named is white blood cells from human buffy coat. The experiment is described as follows: alamarBlue assay (toxicity/cell viability), lipopolysaccharide stimulated. The following applies: PBMC, read-out: % Inhibition of Proliferation of PBMC LPS. The protocol: as §2, §3, §4, §5
The toxicity of the test combination were assessed using alamarBlue® assayed in white blood cells from human buffy coat stimulated with LPS or phorbol 12-myistate 13-acetate and Ionomycin, as follows. Human white blood cells from buffy coat were diluted 1:50 in media (RPMI; Gibco BRL, #11875-085), 10% fetal bovine serum (Gibco BRL, #25140-097), 2% penicillin/streptomycin (Gibco BRL, #15140-122)) and 50 μL of the diluted white blood cells was placed in each well of the final assay plate created in the above section. After 16-18 hours of incubation at 37° C. with 5% CO2 in a humidified incubator, 5 μl of alamarBlue® (BioSource Intl. Inc., DAL 1100) was added to all of the wells. After 20-24 hours of incubation in 37° C. in a humidified incubator, fluorescence was then measured using a plate fluorometer.
Cell viability was measured the alamarBlue® asay described above after stimulation with lipopolysaccharide. The effects of varying concentrations of ibudilast, prednisolone and a combination of ibudilast and prednisolone were compared to control wells. These wells were stimulated with lipopolysaccharide, but not receive ibudilast or prednisolone.

Regarding `CC(C)C(=O)c1c(C(C)C)nn2ccccc12` [Ibudilast, ibudilast], the inhibition at 0.062 µM was 2.8% in the experiment with TNFα secretion (ibudilast 0.062 μM alone), 19% with IL-1 secretion (ibudilast 0.062 μM alone) and -4.6% in experiment [1] (ibudilast 0.062 μM alone). Besides, the inhibition at 0.12 µM is 2.5% in the experiment with TNFα secretion (ibudilast 0.12 μM alone), -1.6% in the experiment on IL-1 secretion (ibudilast 0.12 μM alone) and -1.5% in experiment [1] (ibudilast 0.12 μM alone). For the same compound, the values for the inhibition at 0.25 µM (with TNFα secretion (ibudilast 0.25 μM alone); in the experiment with IL-1 secretion (ibudilast 0.25 μM alone); in experiment [1] (ibudilast 0.25 μM alone)) were 6.5%, 20% and -1.8%, respectively. Also, the inhibition at 0.5 µM with TNFα secretion (ibudilast 0.5 μM alone) is 18%; in the experiment with IL-1 secretion (ibudilast 0.5 μM alone), 18%; in experiment [1] (ibudilast 0.5 μM alone), -3.8%. The inhibition at 1 µM is 28% in the experiment on TNFα secretion (ibudilast 1 μM alone), 41% in the experiment on IL-1 secretion (ibudilast 1 μM alone) and -2.9% in experiment [1] (ibudilast 1 μM alone). For the same compound, the values for the inhibition at 2 µM (with TNFα secretion (ibudilast 2 μM alone); in the experiment on IL-1 secretion (ibudilast 2 μM alone); in experiment [1] (ibudilast 2 μM alone)) were 31%, 42% and 2.6%, respectively. Moreover, the inhibition at 4 µM was 33% in the experiment on TNFα secretion (ibudilast 4 μM alone), 50% in the experiment with IL-1 secretion (ibudilast 4 μM alone) and -2.4% in experiment [1] (ibudilast 4 μM alone). The figures for the inhibition at 8 µM (in the experiment with TNFα secretion (ibudilast 8 μM alone); in the experiment with IL-1 secretion (ibudilast 8 μM alone); in experiment [1] (ibudilast 8 μM alone)) were 40%, 61% and 0.069%, respectively.

Turning to `C[C@]12C=CC(=O)C=C1CC[C@@H]1[C@@H]2[C@@H](O)C[C@@]2(C)[C@H]1CC[C@]2(O)C(=O)CO` [Prednisolone, prednisolone], the inhibition at 0.0078 µM with TNFα secretion (prednisolone 0.0078 μM alone) was 12%; in the experiment with IL-1 secretion (prednisolone 0.0078 μM alone) it was 18%; in experiment [1] (prednisolone 0.0078 μM alone) it was -1.7%. Further, the inhibition at 0.016 µM was 17% with TNFα secretion (prednisolone 0.016 μM alone), 25% with IL-1 secretion (prednisolone 0.016 μM alone) and -1.5% in experiment [1] (prednisolone 0.016 μM alone). The results for the inhibition at 0.031 µM (in the experiment on TNFα secretion (prednisolone 0.031 μM alone); in the experiment on IL-1 secretion (prednisolone 0.031 μM alone); in experiment [1] (prednisolone 0.031 μM alone)) were 22%, 50% and 0.64%, respectively. Further, the results for the inhibition at 0.062 µM (with TNFα secretion (prednisolone 0.062 μM alone); in the experiment with IL-1 secretion (prednisolone 0.062 μM alone); in experiment [1] (prednisolone 0.062 μM alone)) were 22%, 69% and -1.2%, respectively. For the same compound, the figures for the inhibition at 0.12 µM (in the experiment with TNFα secretion (prednisolone 0.12 μM alone); with IL-1 secretion (prednisolone 0.12 μM alone); in experiment [1] (prednisolone 0.12 μM alone)) were 29%, 70% and -1.8%, respectively. In addition, the values for the inhibition at 0.25 µM (in the experiment on TNFα secretion (prednisolone 0.25 μM alone); with IL-1 secretion (prednisolone 0.25 μM alone); in experiment [1] (prednisolone 0.25 μM alone)) were 32%, 74% and -1.3%, respectively. For the same compound, the inhibition at 0.5 µM with TNFα secretion (prednisolone 0.5 μM alone) was 33%; in the experiment with IL-1 secretion (prednisolone 0.5 μM alone) it was 77%; in experiment [1] (prednisolone 0.5 μM alone), -3.3%. In addition, the inhibition at 1 µM is 36% in the experiment on TNFα secretion (prednisolone 1 μM alone), 84% in the experiment with IL-1 secretion (prednisolone 1 μM alone) and -3.8% in experiment [1] (prednisolone 1 μM alone).
